Assays:
5-HT2A receptor = biological target: T1, 5-HT2A receptor (Homo sapiens, UniProt P28223); test: Ca2+ mobilization assay (Fluo-4, FLIPR), HEK 293T cells stably transfected with 5-HT2A; format: cell-based
T1 construct: expressed in transfected cells; host or cells: HEK 293T, stably transfected
Excerpt: The 5-HT2C receptor mainly couples to Gαq proteins. The activated 5-HT2C receptor transmits the signals from the extracellular to the intercellular side using DAG/IP3 (diacyl glycerol/inositol 1,4,5-trisphosphate) as its second massagers (Hannon and Hoyer [2008]). IP3 stimulates the endoplasmic reticulum to release calcium ions into the cytoplasm, which causes the increase of calcium concentration in cytosol. Therefore, calcium mobilization assay is commonly applied to understand how unknown small molecule ligands of 5-HT2C receptor modulate cellular signal transductions. In this case, Fluo-4 Direct dye was used as a fluorescence indicator to detect calcium flux in G protein-coupled receptor expressed cells. The fold of maximum response over average of basal reading is plotted against compound concentration to determine the potency of the compounds (Fig. 3). […]. […] After the dye loaded, cells were placed in a FLIPR^TETRA fluorescence imaging plate reader (Molecular Devices); drug dilutions, prepared at 3× final concentration in FLIPR buffer and aliquotted into 384-well plates, were also added to the FLIPR^TETRA. The fluidics module and plate reader of the FLIPR^TETRA were programmed to read baseline fluorescence for 10 s (1 read/s), then to add 10 μl of drug/well and to read for 6 min (1 read/s). […]

[1] = biological target: T2, 5-HT2C receptor G218^5.42S (Homo sapiens, UniProt P28335, DEL255-298/G218S/G251D/H250E/H252N/INS299[…]/L248D/M247A/M300L/T253W); test: Affinity MS assay, 5-HT2C mutant G218S; format: binding
T2 construct: the N- and C-terminals were truncated by 39 and 65 residues, respectively; PreScission protease site + 10× His (C); made in house
T2 sequence (P28335 with tags, fused parts or gaps with the stated changes): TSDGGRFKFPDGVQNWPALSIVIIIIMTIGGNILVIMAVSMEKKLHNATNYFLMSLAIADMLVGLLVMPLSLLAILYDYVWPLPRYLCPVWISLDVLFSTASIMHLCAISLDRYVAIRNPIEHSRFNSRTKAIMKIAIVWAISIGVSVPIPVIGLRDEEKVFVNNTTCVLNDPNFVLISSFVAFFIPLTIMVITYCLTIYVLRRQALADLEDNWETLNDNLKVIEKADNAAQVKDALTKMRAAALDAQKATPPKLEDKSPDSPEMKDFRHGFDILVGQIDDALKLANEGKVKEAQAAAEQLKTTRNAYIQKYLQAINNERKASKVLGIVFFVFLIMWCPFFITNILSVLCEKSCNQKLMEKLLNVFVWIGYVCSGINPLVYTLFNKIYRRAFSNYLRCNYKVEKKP
Excerpt: Based on the binding poses predicted by molecular docking, single-point mutations were designed to test their impact on ligand binding. Mutations of several residues include the highly conserved Asp134^3.32, which is known to cause 5-HT1B or 5-HT2B receptors to abolish the monoamine ligand binding as reported in the literature (Wang et al. [2013]). In this study, residues forming hydrophobic interactions with the substitution groups on the aporphine scaffold of (–)-crebanine (1) were selected for mutation as well and they are Thr139^3.37, Gly218^5.42, Ala222^5.46, and Leu209^ECL2. Effects of those mutations were tested with the CPM assay and the affinity MS assay (Table 2). In the affinity MS experiment, relative ligand-binding capacity (represented by binding %) to different mutants and the wild-type receptor was compared. Among the six mutations tested, five of them reduced the binding of (–)-crebanine (1) by more than 40% relative to binding to the wild-type receptor, displaying the importance of hydrophobic interactions. […]
Four experimental replicates were prepared for each pair of the test ligand and the negative control. […] S/C ratios refer to the ratio of MS response of a specific ligand detected in the 5-HT2C incubation sample versus the control. […]

T1 sequence (P28223 whole entry): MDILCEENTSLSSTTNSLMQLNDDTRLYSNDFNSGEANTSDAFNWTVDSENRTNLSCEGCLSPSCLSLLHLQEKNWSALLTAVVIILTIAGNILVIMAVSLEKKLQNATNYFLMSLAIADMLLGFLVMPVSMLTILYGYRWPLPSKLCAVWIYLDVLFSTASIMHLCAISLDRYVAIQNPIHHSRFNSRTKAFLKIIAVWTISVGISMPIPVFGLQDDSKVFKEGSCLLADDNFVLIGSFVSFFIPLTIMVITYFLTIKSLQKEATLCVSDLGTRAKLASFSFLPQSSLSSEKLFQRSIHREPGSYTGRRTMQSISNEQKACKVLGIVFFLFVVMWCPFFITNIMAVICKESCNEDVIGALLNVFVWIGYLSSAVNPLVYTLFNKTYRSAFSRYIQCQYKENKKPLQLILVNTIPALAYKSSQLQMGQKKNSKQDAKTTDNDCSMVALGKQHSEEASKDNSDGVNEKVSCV

## COc1ccc2c(c1OC)C[C@@H]1c3c(cc4c(c3-2)OCO4)CCN1C [Compound 1, (–)-crebanine]
5-HT2A receptor
  IC50: 564 nM
[1]; mutant G218^5.42S, n = 2
  (–)-Crebanine/MS relative ligand binding: 6.04%
[1]; mutation Gly218^5.42Ser
  ligand-binding capacity reduction versus wild-type: over 60%

From PMC5860131, “Identification of natural products as novel ligands for the human 5-HT2C receptor” (Biophysics Reports, 2018)
